One assay deals with T1, p70 S6 kinase (S6K1) (Rattus norvegicus, UniProt P67999).
T1 construct: gene Rps6kb1; HA-tagged S6K1 wt immunoprecipitated from HEK293 cells
The assay is described as follows: in vitro […] kinase assay with immunoprecipitated HA-S6K1 and GST-S6 substrate; also KinaseProfiler screen at […]. Format: biochemical.

The target of assay [1] is T2, Pim-2 (Homo sapiens, UniProt Q9P1W9).
T2 construct: gene PIM2
The assay is described as follows: in vitro kinase screen (Upstate KinaseProfiler), single dose […]. The class given is biochemical.

The next assay has as its target NLK (Homo sapiens, UniProt Q9UBE8). The description is as above. Format: biochemical.
A further assay addresses T3, Pim-1 (Homo sapiens, UniProt P11309).
T3 construct: gene PIM1
The assay is described as above. The class given is biochemical.

The target of assay [2] is T2, Pim-2. Put plainly: biochemical. Further details: Upstate KinaseProfiler in vitro kinase activity assay, per cent of DMSO control. To be noted: read-out: Activity (% of Control). On the procedure: (§1) Kinase profile and kinase assay. A Kinase profile against 100 kinases listed for resveratrol at 20 μM was generated utilizing Upstate's KinaseProfiler™ service. Assay protocols for each kinase are available from Upstate (Lake Placid, NY). In vitro kinase assay was performed as described previously. Briefly, HEK293 cells were transfected with HA-S6K1 wt, HA-S6K1 K100R, or vector as indicated. Cells were treated with 1 μg/ml insulin for 10 minutes prior to harvesting in PBS + 0.5% NP-40 + protease and phosphatase inhibitors. 125 μg of lysate per sample was immunoprecipitated using 0.5 μg/sample of anti-HA High-Affinity (Roche, Basel Switzerland). Beads from immunoprecipitations were washed three times in lysis buffer and once in kinase buffer, and kinase assays were performed with recombinant GST-S6 as substrate (1 μg per assay). In the indicated lanes varying doses of resveratrol or DMSO control were added to the reaction prior to addition of the GST-S6 substrate. All samples were subjected to SDS-PAGE, and 32P incorporation was quantified by using a Bio-Rad (Hercules, CA) Phosphor-Imager and subsequent analysis with ImageJ (NIH).  Figure 4. Resveratrol inhibits S6K1 in vitro. (A) Structural similarity between resveratrol and quercetin, a known kinase inhibitor. (B) Kinase inhibition profile for resveratrol at 20 μM obtained using KinaseProfiler™ (Upstate). Dashed line represents 100% activity as compared to control. Black filled-in bar on the graph indicates S6K1. Complete data set is provided in Supplementary Table 1. Error bars represent s.d.m. (C) Phosphorylation of recombinant GST-tagged S6 by immunoprecipitated HA-S6K1 under increasing concentrations of resveratrol (Res). Autoradiograph depicts S6K1 phosphorylation of GST-S6. (D) Average of three separate kinase assay experiments as performed in (C). Densitometry was performed using NIH ImageJ. Error bars represent s.e.m. […] Therefore, we hypothesized that the effect of resveratrol on autophagy could be related to inhibition of one or more upstream kinases. To test this, we performed an in vitro kinase screen and determined an inhibition profile for resveratrol. […] With the exception of S6K1, these kinases play primary roles in the hematopoietic system, and were thus viewed as unlikely to have been responsible for the effect we were studying. […] On the other hand, S6K1 is known to play a requisite role in the regulation of autophagy in Drosophila, making it a promising candidate for the in vivo target of resveratrol that is responsible for inhibition of autophagy.

For a further assay, the target named is T4, Rsk1(h) (Homo sapiens, UniProt Q15418).
T4 construct: gene RPS6KA1
The assay is described as follows: biochemical. Also on record: Upstate KinaseProfiler in vitro kinase activity assay, per cent of DMSO control. As to conditions: read-out: Activity (% of Control). On the procedure:
as §1

The target in another assay is T5, CHK2(h) (Homo sapiens, UniProt O96017).
T5 construct: gene CHEK2
Put plainly: biochemical. Also on record: Upstate KinaseProfiler in vitro kinase activity assay, per cent of DMSO control. As to conditions: read-out: Activity (% of Control). The method, then:
as §1

The next assay addresses ALK(h) (Homo sapiens, UniProt Q9UM73). Put plainly: biochemical. To be noted: read-out: Activity (% of Control). Also on record: Upstate KinaseProfiler in vitro kinase activity assay, per cent of DMSO control. On the procedure:
as §1

The target in the next assay is T6, Tie2(h) (Homo sapiens, UniProt Q02763).
T6 construct: gene TEK
Put plainly: biochemical. As to conditions: read-out: Activity (% of Control). Also on record: Upstate KinaseProfiler in vitro kinase activity assay, per cent of DMSO control. On the procedure:
as §1

The target of the next assay is T7, SAPK2a(T106M)(h) (Homo sapiens, UniProt Q16539, T106M).
T7 construct: gene MAPK14
Put plainly: biochemical. Further details: Upstate KinaseProfiler in vitro kinase activity assay, per cent of DMSO control. As to conditions: read-out: Activity (% of Control). The method, then: as §1

The next assay concerns the target T8, PKCζ(h) (Homo sapiens, UniProt Q05513).
T8 construct: gene PRKCZ
Put plainly: biochemical. Also on record: Upstate KinaseProfiler in vitro kinase activity assay, per cent of DMSO control. To be noted: read-out: Activity (% of Control). On the procedure:
as §1

In a further assay the target is Met(h) (Homo sapiens, UniProt P08581). The assay is described as follows: biochemical. As to conditions: read-out: Activity (% of Control). Further details: Upstate KinaseProfiler in vitro kinase activity assay, per cent of DMSO control. On the procedure:
as §1

A further assay deals with T9, SIK(h) (Homo sapiens, UniProt P57059).
T9 construct: gene SIK1
Put plainly: biochemical. Further details: Upstate KinaseProfiler in vitro kinase activity assay, per cent of DMSO control. To be noted: read-out: Activity (% of Control). The method, then: as §1

Another assay has as its target CDK6/cyclinD3(h) (Homo sapiens, UniProt Q00534). Put plainly: biochemical. Further details: Upstate KinaseProfiler in vitro kinase activity assay, per cent of DMSO control. To be noted: read-out: Activity (% of Control). The method, then: as §1
A further assay addresses T10, MST1(h) (Homo sapiens, UniProt Q13043).
T10 construct: gene STK4
Put plainly: biochemical. Also on record: Upstate KinaseProfiler in vitro kinase activity assay, per cent of DMSO control. To be noted: read-out: Activity (% of Control). On the procedure:
as §1

The next assay has as its target T11, PKBß(h) (Homo sapiens, UniProt P31751).
T11 construct: gene AKT2
The assay is described as follows: biochemical. Further details: Upstate KinaseProfiler in vitro kinase activity assay, per cent of DMSO control. To be noted: read-out: Activity (% of Control). On the procedure:
as §1

The target of a further assay is T12, JNK2α2(h) (Homo sapiens, UniProt P45984).
T12 construct: gene MAPK9; isoform alpha2
Put plainly: biochemical. Further details: Upstate KinaseProfiler in vitro kinase activity assay, per cent of DMSO control. As to conditions: read-out: Activity (% of Control). On the procedure: as §1

In another assay the target is T13, IR(h) (Homo sapiens, UniProt P06213).
T13 construct: gene INSR
The assay is described as follows: biochemical. Further details: Upstate KinaseProfiler in vitro kinase activity assay, per cent of DMSO control. As to conditions: read-out: Activity (% of Control). The method, then:
as §1

The next assay deals with T14, PI 3-Kinaseγ(h) (Homo sapiens, UniProt P48736).
T14 construct: gene PIK3CG
The assay is described as follows: biochemical. To be noted: read-out: Activity (% of Control). Further details: Upstate KinaseProfiler in vitro kinase activity assay, per cent of DMSO control. On the procedure:
as §1

Structures are written as SMILES.

T2 sequence (Q9P1W9 whole entry): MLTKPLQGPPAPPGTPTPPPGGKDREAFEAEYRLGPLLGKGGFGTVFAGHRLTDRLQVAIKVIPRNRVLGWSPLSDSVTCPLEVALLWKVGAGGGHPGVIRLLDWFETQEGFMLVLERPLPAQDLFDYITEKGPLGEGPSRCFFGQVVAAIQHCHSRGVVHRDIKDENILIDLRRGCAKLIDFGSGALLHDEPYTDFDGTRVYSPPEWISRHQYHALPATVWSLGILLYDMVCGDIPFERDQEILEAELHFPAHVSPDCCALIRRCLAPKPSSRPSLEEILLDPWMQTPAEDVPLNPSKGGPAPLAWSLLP
T14 sequence (P48736 whole entry): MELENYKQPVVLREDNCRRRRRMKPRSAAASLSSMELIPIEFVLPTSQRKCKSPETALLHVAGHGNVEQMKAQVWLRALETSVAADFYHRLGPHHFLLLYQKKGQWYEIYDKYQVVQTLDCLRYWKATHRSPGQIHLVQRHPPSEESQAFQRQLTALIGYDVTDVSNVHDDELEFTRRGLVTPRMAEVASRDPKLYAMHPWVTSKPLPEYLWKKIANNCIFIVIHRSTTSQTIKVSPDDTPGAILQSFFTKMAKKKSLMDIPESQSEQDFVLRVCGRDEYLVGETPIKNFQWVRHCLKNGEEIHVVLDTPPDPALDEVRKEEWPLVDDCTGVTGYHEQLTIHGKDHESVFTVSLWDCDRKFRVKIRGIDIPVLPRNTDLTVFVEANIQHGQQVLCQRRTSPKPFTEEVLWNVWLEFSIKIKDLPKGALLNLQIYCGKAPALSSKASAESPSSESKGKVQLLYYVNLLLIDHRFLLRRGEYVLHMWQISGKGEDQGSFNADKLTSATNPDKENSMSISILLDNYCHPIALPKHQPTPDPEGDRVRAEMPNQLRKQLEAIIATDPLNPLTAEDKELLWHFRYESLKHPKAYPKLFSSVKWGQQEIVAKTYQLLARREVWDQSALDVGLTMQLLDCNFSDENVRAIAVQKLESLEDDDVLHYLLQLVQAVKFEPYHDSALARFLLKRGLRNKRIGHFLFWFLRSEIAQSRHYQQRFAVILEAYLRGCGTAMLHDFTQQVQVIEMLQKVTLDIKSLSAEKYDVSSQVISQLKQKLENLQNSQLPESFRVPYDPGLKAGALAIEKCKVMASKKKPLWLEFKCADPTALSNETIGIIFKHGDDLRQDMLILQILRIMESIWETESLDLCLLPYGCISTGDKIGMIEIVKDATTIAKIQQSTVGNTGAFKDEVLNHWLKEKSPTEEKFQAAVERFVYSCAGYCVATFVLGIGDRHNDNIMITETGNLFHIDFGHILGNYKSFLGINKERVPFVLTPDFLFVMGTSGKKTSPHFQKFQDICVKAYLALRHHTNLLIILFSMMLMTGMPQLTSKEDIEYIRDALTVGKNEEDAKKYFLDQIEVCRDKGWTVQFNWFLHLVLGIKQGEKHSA
T7 sequence (Q16539 whole entry T106M): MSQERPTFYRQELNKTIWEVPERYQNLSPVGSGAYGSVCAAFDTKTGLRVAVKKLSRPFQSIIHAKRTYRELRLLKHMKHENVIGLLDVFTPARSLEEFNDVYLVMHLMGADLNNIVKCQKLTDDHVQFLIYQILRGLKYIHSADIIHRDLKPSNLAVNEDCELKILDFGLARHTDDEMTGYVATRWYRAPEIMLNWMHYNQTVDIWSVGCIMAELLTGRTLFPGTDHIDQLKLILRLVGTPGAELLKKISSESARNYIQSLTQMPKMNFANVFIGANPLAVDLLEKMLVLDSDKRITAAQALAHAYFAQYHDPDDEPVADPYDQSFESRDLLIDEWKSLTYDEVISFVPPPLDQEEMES
Chain of CDK6/cyclinD3(h) (Q00534 whole entry): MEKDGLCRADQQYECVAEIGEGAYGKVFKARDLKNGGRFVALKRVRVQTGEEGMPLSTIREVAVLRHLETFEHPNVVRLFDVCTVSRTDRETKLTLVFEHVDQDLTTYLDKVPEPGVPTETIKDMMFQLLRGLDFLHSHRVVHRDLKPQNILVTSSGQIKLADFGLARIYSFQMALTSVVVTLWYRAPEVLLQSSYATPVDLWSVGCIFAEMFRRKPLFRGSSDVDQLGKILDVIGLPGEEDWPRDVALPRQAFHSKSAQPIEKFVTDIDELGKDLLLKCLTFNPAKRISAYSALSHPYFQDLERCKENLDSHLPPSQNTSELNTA
Chain of CDK6/cyclinD3(h) (P30281 whole entry partner): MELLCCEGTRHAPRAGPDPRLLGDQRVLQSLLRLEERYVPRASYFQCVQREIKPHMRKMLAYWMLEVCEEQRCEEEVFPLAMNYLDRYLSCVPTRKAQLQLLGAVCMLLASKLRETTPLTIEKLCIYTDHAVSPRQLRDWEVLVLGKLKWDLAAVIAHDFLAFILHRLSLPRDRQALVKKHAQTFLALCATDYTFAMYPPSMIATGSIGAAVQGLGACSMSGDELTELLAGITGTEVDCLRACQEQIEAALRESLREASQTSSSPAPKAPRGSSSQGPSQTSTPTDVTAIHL
T9 sequence (P57059 whole entry): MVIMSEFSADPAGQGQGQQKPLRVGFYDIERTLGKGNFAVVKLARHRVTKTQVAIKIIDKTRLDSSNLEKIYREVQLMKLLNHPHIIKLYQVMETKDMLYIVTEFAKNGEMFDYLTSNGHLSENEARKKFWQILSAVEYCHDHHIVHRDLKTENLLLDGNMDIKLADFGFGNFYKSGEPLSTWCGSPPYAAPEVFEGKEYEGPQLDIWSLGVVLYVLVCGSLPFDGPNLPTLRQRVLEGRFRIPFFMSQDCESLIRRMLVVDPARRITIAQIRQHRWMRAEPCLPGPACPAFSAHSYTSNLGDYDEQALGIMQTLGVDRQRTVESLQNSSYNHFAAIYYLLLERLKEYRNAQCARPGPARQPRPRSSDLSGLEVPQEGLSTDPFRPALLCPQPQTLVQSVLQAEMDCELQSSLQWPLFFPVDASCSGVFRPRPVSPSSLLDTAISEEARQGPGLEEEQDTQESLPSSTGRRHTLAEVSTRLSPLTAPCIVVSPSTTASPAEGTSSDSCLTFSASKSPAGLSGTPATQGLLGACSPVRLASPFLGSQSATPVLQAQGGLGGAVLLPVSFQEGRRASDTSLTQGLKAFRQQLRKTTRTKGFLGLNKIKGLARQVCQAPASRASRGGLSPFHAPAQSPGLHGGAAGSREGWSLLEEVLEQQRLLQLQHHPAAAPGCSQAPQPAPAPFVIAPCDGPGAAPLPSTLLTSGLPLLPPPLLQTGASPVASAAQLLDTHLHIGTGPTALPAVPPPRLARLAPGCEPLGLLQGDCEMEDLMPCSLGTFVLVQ
T10 sequence (Q13043 whole entry): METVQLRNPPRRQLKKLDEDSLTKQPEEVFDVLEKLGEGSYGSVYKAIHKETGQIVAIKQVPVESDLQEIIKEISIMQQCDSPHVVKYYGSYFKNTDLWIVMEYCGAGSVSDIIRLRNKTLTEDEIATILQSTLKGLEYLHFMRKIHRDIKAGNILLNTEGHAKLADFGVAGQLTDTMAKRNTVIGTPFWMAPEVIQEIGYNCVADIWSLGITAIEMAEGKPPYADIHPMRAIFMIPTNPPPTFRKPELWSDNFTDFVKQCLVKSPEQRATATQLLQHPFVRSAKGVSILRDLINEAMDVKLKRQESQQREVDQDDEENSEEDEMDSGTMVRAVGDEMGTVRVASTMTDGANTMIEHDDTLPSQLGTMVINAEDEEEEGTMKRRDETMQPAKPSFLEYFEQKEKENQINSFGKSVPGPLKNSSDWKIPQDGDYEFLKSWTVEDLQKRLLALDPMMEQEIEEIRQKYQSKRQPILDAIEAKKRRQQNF
T1 sequence (P67999 24-525): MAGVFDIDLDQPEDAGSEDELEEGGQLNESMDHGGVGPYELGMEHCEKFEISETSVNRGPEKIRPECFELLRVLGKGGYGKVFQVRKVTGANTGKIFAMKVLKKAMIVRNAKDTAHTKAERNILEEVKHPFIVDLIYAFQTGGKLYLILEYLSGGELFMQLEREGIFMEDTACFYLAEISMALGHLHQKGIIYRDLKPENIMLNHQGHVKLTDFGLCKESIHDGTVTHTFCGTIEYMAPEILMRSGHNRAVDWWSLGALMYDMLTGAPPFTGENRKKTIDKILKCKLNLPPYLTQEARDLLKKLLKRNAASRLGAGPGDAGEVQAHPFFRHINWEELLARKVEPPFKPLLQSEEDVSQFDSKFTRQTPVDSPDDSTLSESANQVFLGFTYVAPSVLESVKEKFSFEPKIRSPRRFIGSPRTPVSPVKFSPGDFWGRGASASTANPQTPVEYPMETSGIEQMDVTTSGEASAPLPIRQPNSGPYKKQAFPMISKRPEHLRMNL
Chain of NLK (Q9UBE8 whole entry): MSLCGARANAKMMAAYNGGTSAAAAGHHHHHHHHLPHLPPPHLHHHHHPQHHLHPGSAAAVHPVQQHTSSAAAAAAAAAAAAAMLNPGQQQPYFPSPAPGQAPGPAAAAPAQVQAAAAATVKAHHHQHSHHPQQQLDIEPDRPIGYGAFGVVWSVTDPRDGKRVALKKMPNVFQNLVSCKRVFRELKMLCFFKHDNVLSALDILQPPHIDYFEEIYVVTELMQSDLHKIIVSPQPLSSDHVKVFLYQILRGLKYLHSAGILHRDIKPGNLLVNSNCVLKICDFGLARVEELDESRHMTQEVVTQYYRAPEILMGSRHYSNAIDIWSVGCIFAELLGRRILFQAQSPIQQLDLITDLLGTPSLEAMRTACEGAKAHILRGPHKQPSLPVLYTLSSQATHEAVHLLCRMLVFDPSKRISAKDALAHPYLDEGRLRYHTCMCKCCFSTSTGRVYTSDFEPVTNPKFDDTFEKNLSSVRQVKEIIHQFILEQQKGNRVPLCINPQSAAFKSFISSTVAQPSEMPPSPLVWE

At p70 S6 kinase (S6K1), `Oc1ccc(/C=C/c2cc(O)cc(O)c2)cc1` [Res, resveratrol] registered a concentration for half-maximal inhibition (IC50) of approximately 25 µM. The “in vitro kinase screen (Upstate KinaseProfiler), single dose 20 μM” value was “Jak2, NLK, p70 S6 kinase (S6K1), Pim-1, and Pim-2 emerged as potential targets of resveratrol” on Pim-2 [1]; “Jak2, NLK, p70 S6 kinase (S6K1), Pim-1, and Pim-2 emerged as potential targets of resveratrol” on NLK; “Jak2, NLK, p70 S6 kinase (S6K1), Pim-1, and Pim-2 emerged as potential targets of resveratrol” at Pim-1. Further, the remaining activity at 20 µM on Pim-2 [2] came out at 14 ± 2%; on Rsk1(h), 70 ± 1%; on CHK2(h), 59 ± 6%; on ALK(h), 39%; at Tie2(h) it was 94 ± 8%; at SAPK2a(T106M)(h) it was 102 ± 2%. Besides, the remaining activity at 20 µM on PKCζ(h) amounted to 89%; on Met(h), 114 ± 5%; at SIK(h) it was 76 ± 1%; at CDK6/cyclinD3(h), 55 ± 2%; at MST1(h), 75 ± 6%; on PKBß(h) it was 105 ± 3%. In addition, the remaining activity at 20 µM at JNK2α2(h) came to 110 ± 4%; on IR(h), 71 ± 5%; on PI 3-Kinaseγ(h) it was 101 ± 1%.

As a reminder, the IC50 is the concentration that gives 50% inhibition. A higher IC50 goes with weaker potency in that assay.
